Test results as given in patent US20200129523A1, “SHIP INHIBITION TO INDUCE EXPRESSION OF GRANULOCYTE COLONY STIMULATING FACTOR IN A SUBJECT” (THE RESEARCH FOUNDATION FOR THE STATE UNIVERSITY OF NEW YORK, priority 2014, published 2020).
Entries after “also recorded” stand apart in the source; their conditions may differ.

Key:
HSC compartment = experiment: Flow cytometric quantitation of hematopoietic stem/progenitor populations and cellularity in bone marrow of treated mice; type: in vivo, C57BL/6NTac mice; conditions: K118 10 mg/kg i.p. 5 days, vs H2O
Protocol: HSC phenotype, cell-cycle progression, G-CSF neutralization, and CXCR4 MFI determination by FACS analysis was performed on whole bone marrow (WBM) cells harvested from a tibia and femur pair obtained from SHIPi and vehicle treated 8-12 week old male C57BL/6NTac mice (Taconic). Generation of the CD45.1×CD45.2 strain utilized in the CRU assay were obtained by intercrossing C57BL6/J (CD45.2) and B6.SJL (CD45.1), as previously described.^5 The SUNY Upstate Medical University Committee for Humane Use of Animals approved all animal experiments.
In vivo administration of 3AC was previously described.^14 Briefly, 3AC is resuspended as an emulsion in 0.3% Klucel/H20. Mice were treated via intraperitoneal injection every 24 hrs for 5 days at a final concentration of 26.5 mg/kg. Analysis and transplants were performed on day 6. The 3AC derivative K118 (Soluble SHIPi) was suspended in pure H2O and heated at 100° C. for ˜15 min to allow the compound to enter solution. The delivery method was the same as with 3AC, however, the mice were treated for 5 days at a final concentration of 10 mg/kg. Vehicle cohorts for 3AC were treated with 0.3% Klucel/H20 and K118 were treated with pure H2O.
Cell isolation was performed according to method detailed in Hazen et al.^6 Briefly, WBM was flushed from both femurs and tibias per mouse with a 25-gauge needle, red blood cell lysed (eBioscience), and resuspended in staining media comprised of Hanks Buffered Saline Solution (HBSS), 2% heat inactivated fetal bovine serum (FBS), and 10 mM HEPES (Sigma). The cells harvested for the CRU assay were flushed, red blood cell lysed, washed, and resuspended in sterile phosphate buffered saline (PBS). Peripheral blood mononuclear cells (PBMC) were collected via submandibular bleed in EDTA Micorvette tubes (SARSTEDT).
All antibodies were from BD Biosciences or eBioscience. All WBM, PBMC and BM derived MSC cell populations were Fc blocked on ice for 10 min prior to antibody staining. Global reconstitution was determined by staining PBMC with CD45.1-PeCy7 and CD45.2-APC. Multi-lineage repopulation was determined by staining PBMC with CD3-FITC (145-2C11), CD19-PerCP5.5 (1D3), Mac1-PE (M1/70), Gr1-Alexa700 (RB6-8C5) and NK1.1-APC-Cy7 (PK136). The Lin−cKit+Sca1+CD34−Flk2− (LSKF34−) phenotype was utilized to determine frequency of LT-HSC, ST-HSC, and MPP; the stain was comprised of Lin-PerCP 5.5, cKit-APC (2B8), Sca1-PeCy7 (D7), CD34-FITC (RAM34), Flk2-PE (A2F10). LSKF-CXCR4 stain was used to determine surface expression of the homing marker CXCR4. All cells were washed twice with staining media, resuspended in staining media plus DAPI for dead cell exclusion, and then analyzed on a flow cytometer LSRII (BD Biosciences). All flow cytometry data was analyzed using FlowJo (9.4.3) software.

MSC (CFU-F) = experiment: Colony forming unit (CFU-F) assay on BM cells of treated mice; type: in vivo; conditions: K118 10 mg/kg i.p. 5 days, vs H2O
Protocol: Primary whole BM cells (adherent+non-adherent) were plated in 60-mm plates (triplicates, 3×10^6 cells per plate) in CFU-F growth media: DMEM, Mesencult Serum (Stem Cell Technologies) with 1% penicillin-streptomycin-glutamine. Cells were cultured for approximately 7 days, after which cells were fixed with 70% ethanol and stained for alkaline phosphatase activity using the Leukocyte Alkaline Phosphatase Kit (Sigma) and counter-stained with neutral red (Sigma). Colonies (ALP^+ cells/colonies) were counted using the Software program “Image J” (National Institutes of Health Research Services Branch).

G-CSF = G-CSF ELISA of serum of treated mice; type: in vivo; conditions: K118 10 mg/kg i.p. 5 days, vs H2O; hydrochloride, 10 mg/kg
Protocol: Peripheral blood was collected in serum separation microvette tubes (SARSTEDT). Tubes were kept at room temperature for 2 hrs. and then spun at 2000×g for 20 min as per manufacturers recommendation. Serum levels of G-CSF in treated mice were determined using a Mouse G-CSF Quantikine Elisa kit (R&D systems).

Compound: C[C@@]12CCC[C@H]1[C@@H]1CC[C@H]3C[C@@H](N)CC[C@]3(C)[C@H]1CC2.Cl [K118, 3β-amino-5α-androstane hydrochloride]
- BM cellularity (HSC compartment): significant increase
- LT-HSC in BM (HSC compartment): significant increases
- MPP in BM (HSC compartment): significant increases
- ST-HSC in BM (HSC compartment): significant increases
- frequency of CFU-F in BM (MSC (CFU-F)): significantly increased frequency
- G-CSF production (serum) (G-CSF): significant increase; also recorded: super-induces
